Laboratory results: PMC6609550, “Blockade of the forward Na^+/Ca^2+ exchanger suppresses the growth of glioblastoma cells through Ca^2+‐mediated cell death” (British Journal of Pharmacology, 2019)

Assays:
Format in all cases: cell-based, Human
[Ca^2+]i in U87 cells = Ca2+ imaging (Fluo-4 AM) of U87 cells; settings: BAPTA‐AM 20 μM for 2 hr before perfusion
Experimental: Cells were cultured in 96‐well plates at 8 × 10^3 per well and loaded with the cell membrane‐permeable Ca^2+ dye Fluo‐4 AM (5 μM) in 100‐μl HEPES‐buffered solution for 50 min. The solution contained (mM): 135 NaCl, 3 KCl, 2 CaCl2, 1 MgCl2, 10 glucose, and 10 HEPES, supplemented with 1% FBS at pH 7.4. To prepare the Ca^2+‐free solution, 2‐mM CaCl2 was replaced with 1‐mM EGTA in the HEPES‐buffered solution. The 96‐well plate containing the Fluo‐4 AM‐loaded cells was mounted in a Leica TCS SP8 confocal system (Leica Microsystems, Wetzlar, Germany). The confocal microscope armed with 488‐nm laser light was employed to excite the dynamic fluorescent signals in time and synchronously, while test regents were added to cells. To do Na^+ imaging, Fluo‐4 AM was replaced with the cell membrane‐permeable Na^+ dye Asante NaTrium Green‐2 AM (ANG‐2 AM) at 5 μM, which was excited by 514‐nm laser light. Visual inspection and fluorescent imaging were carried out at room temperature. The imaging data were analysed with the software https://leica-las-af-lite.software.informer.com/ 2.5 (Leica). The imaging traces shown are representative of at least three separate experiments; 12–18 cells were imaged in each experiment.

U87 cells [1] = test: Cell cycle assay (PI staining, flow cytometry) of U87 cells
Experimental: (§1) U87 cells were seeded in six‐well plates (Corning, Corning, NY, USA) with 1 × 10^6 cells per well and treated with NCX blockers, BAPTA‐AM, or MAPK inhibitors. Drug treatment was performed by the person who is blinded to the experimental groups. After treatment, cells were harvested in 15‐ml tubes and washed with cold sterile PBS. After being centrifuged, cells were fixed with 70% ethanol […] at 4°C for at least 1 hr. For propidium iodide (PI) staining, cells were washed one time with PBS and then were treated with ribonuclease A (RNase; 100 μg·ml^−1) for 30 min. PI (10 μg·ml^−1) was added, and stained cells were kept in the dark at 4°C until analysis. The number of cells analysed for each sample was 10,000 events. FACS analysis was performed using the Coulter CytoFlexS flow cytometer (Beckman Coulter, CA, USA), and the percentage of cells in the G0/G1, S, and G2/M phases was determined using cell cycle analysis software, ModFit LT 5.0 (Verity Software House, Topsham, ME, USA). For the apoptosis assay, cells were harvested and washed twice with cold PBS and resuspended at a density of 1 × 10^6 cells·ml^−1 in 100 μl of binding buffer containing 5 μl of Annexin V–FITC and 5 μl of PI working solution (100 μg·ml^−1). After incubation at room temperature for 15 min in the dark, 400 μl of binding buffer was added to each sample. Apoptosis was analysed by Coulter CytoFlexS flow cytometer (Beckman Coulter) for at least 10,000 events, and data were analysed with the software, CyExpert 2.0 (Beckman Coulter).

U87 cells [2] = test: Annexin V–FITC/PI apoptosis assay of U87 cells
Experimental: as §1

p38‐MAPK = test: Western blot of phosphorylated and total p38-MAPK in U87 cells; settings: BAPTA‐AM 10 μM 18 hr then bepridil 25 μM 30 min
Experimental: (§2) After treatment with bepridil for 0, 30, 60, and 90 min, cells were collected and lysed in RIPA buffer (Beyotime, Nanjing, China) supplemented with protease inhibitor (Beyotime). The total protein concentration of each sample was determined using the BCA Protein Assay Kit (Sangon Biotech, Shanghai, China). Equal protein extracts (45‐μg protein per lane) were separated by SDS‐PAGE and electrophoretically transferred to PVDF membranes (Millipore, Bedford, MA, USA). Then, the membranes were incubated with anti‐phosphorylated and total http://www.guidetopharmacology.org/GRAC/FamilyDisplayForward?familyId=514, http://www.guidetopharmacology.org/GRAC/FamilyDisplayForward?familyId=518, and http://www.guidetopharmacology.org/GRAC/FamilyDisplayForward?familyId=519 antibodies (1:1,000; Cell Signaling Technology) at 4°C overnight, followed by incubation with IRDye 680LT fluorescent secondary antibody (LI‐COR Biosciences, Lincoln, NE, USA). Proteins were visualized using the Odyssey Fc Imaging System (LI‐COR Biosciences, Lincoln, NE, USA). Mouse α‐tubulin antibody was used as protein loading controls. The immuno‐related procedures used comply with the recommendations made by the British Journal of Pharmacology (Alexander et al., 2018).

JNK = test: Western blot of phosphorylated and total JNK in U87 cells; settings: BAPTA‐AM 10 μM 18 hr then bepridil 25 μM 30 min
Experimental: as §2

[3] = BAPTA‐AM 10 μM 18 hours then CB‐DMB 3.5 μM 18 hours

Q: What does the source list for `CC(=O)OCOC(=O)CN(CC(=O)OCOC(C)=O)c1ccccc1OCCOc1ccccc1N(CC(=O)OCOC(C)=O)CC(=O)OCOC(C)=O` [BAPTA‐AM, 1,2‐bis(2‐aminophenoxy)ethane‐N,N,N′,N′‐tetraacetic acid tetrakis (acetoxymethyl ester)]?
A: Effect of pretreatment on the influence of bepridil and KB‐R7943 on [Ca2+]i ([Ca^2+]i in U87 cells): completely abrogated; Effect on CB-DMB-induced cell cycle arrest (U87 cells [1]; [3]): significantly attenuated; Effect on KB-R7943-induced G0/G1 arrest (U87 cells [1]; BAPTA‐AM 10 μM + KB‐R7943 25 μM, 18 hr): not rescued; Effect on bepridil-induced G0/G1 cell cycle arrest (U87 cells [1]; bepridil 25 μM 18 hr, pretreatment BAPTA‐AM 10 μM, CC‐930 10 μM or PD169316 10 μM): significantly attenuated; Effect on CB-DMB-induced apoptosis (U87 cells [2]; [3]): significantly suppressed; Effect on KB-R7943-induced apoptosis (U87 cells [2]; BAPTA‐AM 10 μM + KB‐R7943 25 μM, 20 hr): not attenuated; Effect on bepridil-induced apoptosis (U87 cells [2]; bepridil 25 μM 24 hr, pretreatment BAPTA‐AM 10 μM, CC‐930 10 μM or PD169316 10 μM): significantly attenuated; Effect on bepridil-induced p38-MAPK activation (p38‐MAPK): attenuated; Effect on bepridil-induced JNK activation (JNK): attenuated
